This data set deals with HCT116 p53+/+ or p53−/− tumor. Put plainly: Subcutaneous HCT116 shMyD88 tumors in nude mice, doxycyclin-induced MyD88 extinction. Format: in vivo. Conditions: HCT116 cells stably expressing doxycyclin-inducible MyD88 shRNA, treated with doxycyclin. The protocol: Then we generated HCT116 p53+/+ or p53−/− stably expressing a doxycyclin-inducible MyD88 shRNA. These cell lines were subcutaneously implanted in nude mice, then the mice were treated or not with doxycyclin to induce MyD88 extinction in the tumor.

On to “MyD88 shRNA: doxycyclin-inducible MyD88 shRNA stably expressed in HCT116 cells (sense CGGACCCTAAATCCAATAGAAA; antisense TTTCTATTGGATTTAGGGTCCT)”, for which the “Tumor growth in vivo” value is “blocks tumor growth in vivo”.

Source of the values: patent US9683986B2, “Treatment of cancer by inhibition of the MYD88/ERK MAP kinase interaction” (CENTRE LEON BERARD, priority 2011, dated 2017).
